Reference: US9078890B2, “Use of koumine and its homologues in preparation of medicament for treatment of autoimmune diseases of involved bones and joints” (priority 2011, dated 2015)

What was measured:
[1] = test system: type II collagen-induced arthritis rat; assay: Type II collagen-induced arthritis rat: joint pathological change, HE staining and pathological score; type: in vivo, Wistar rat; conditions: koumine 0.6, 3, 15 mg/kg intragastric; 10 days after intervention
Experimental: (§1) Under aseptic conditions, 10 mg chicken type II collagen protein was fully mixed with 5 ml 10 mM glacial acetic acid solution, and stirred overnight in refrigerator at 4° C. to fully dissolve it. It was mixed with complete Freund's adjuvant in equal volume in ice bath to fully emulsify into an emulsion with a collagen concentration of 1 mg/ml.
(§2) Wistar rats are divided into a modeling group and a false modeling group. After the modeling group rats were narcotized with intraperitoneal injection of pentobarbital, the above emulsion was injected intracutaneously at 3 to 4 positions at back, tail root or the like, 0.3 ml for each, an primary immunity was carried out. After 7 days, a secondary immunity was carried out, the emulsifying agent complete Freund's adjuvant of initial immunity was replaced with incomplete Freund's adjuvant, 0.1 ml the emulsion was injected under sevoflurane inhalation anesthesia wherein the injection position is different from the last time. In false modeling group, the emulsion was replaced with solvent glacial acetic acid solution. […]
The rats of each group were killed 10 days after intervention, the ankle joints of left hind limbs were picked off to conduct HE staining, and the pathological change was observed and scored. […]

adjuvant arthritis mice [2] = assay: Adjuvant arthritis mice: condition and body weight; type: in vivo, Kunming mice
Experimental: (§3) BCG was inactivated in water bath at 80° C., and fully emulsified along with complete Freund's adjuvant to form complete Freund's adjuvant emulsion containing 5 mg/ml BCG, preserved at 4° C., and shake well before use. The Kunming mice were divided into a modeling group and a false modeling group. According to the method recited in the literature [Rasool M, Sabina E P, Lavanya B. Anti-inflammatory effect of Spirulina fusiformis on adjuvant-induced arthritis in mice. Biol Pharm Bull. 2006, 29(12):2483-7], for the modeling group, the model was prepared by intradermal injection of 20 ul the emulsion under the plantar surface of right paws after the mice was narcotized; for the false modeling group, the emulsion was replaced with physiological saline. For the modeling group, the animals were screened on Day 8 after injection: the mice with the injected paw thickness increased >0.5 mm and thermal hyperalgesia occurred (paw thermal withdrawal latency <8 second) were selected as experimental subjects. The selected mice were divided into 5 groups randomly: low, middle, high dose treatment group (0.8, 4, 20 mg/kg); indomethacin positive control group (10 mg/kg); negative control group (physiological saline), each comprising 12 animals. […]

[3] = test system: serum type II collagen antibody; assay: Type II collagen-induced arthritis rat: serum type II collagen antibody (ELISA); type: in vivo, Wistar rat; conditions: koumine 0.6, 3, 15 mg/kg intragastric once daily 10 days; after intervention finished; dose dependent
Experimental: as §1
(§4) Wistar rats are divided into a modeling group and a false modeling group. After the modeling group rats were narcotized with intraperitoneal injection of pentobarbital, the above emulsion was injected intracutaneously at 3 to 4 positions at back, tail root or the like, 0.3 ml for each, an primary immunity was carried out. After 7 days, a secondary immunity was carried out, the emulsifying agent complete Freund's adjuvant of initial immunity was replaced with incomplete Freund's adjuvant, 0.1 ml the emulsion was injected under sevoflurane inhalation anesthesia wherein the injection position is different from the last time. In false modeling group, the emulsion was replaced with solvent glacial acetic acid solution.
(§5) Successfully modeled rat in the modeling group were randomly divide into 5 groups: low, middle, high-dose koumine treatment group, positive control group, negative control group, 10 rats for each group. […]

[4] = test system: type II collagen-induced arthritis rat; assay: Type II collagen-induced arthritis rat: joint pathological change, X-ray; type: in vivo, Wistar rat; conditions: high dose and middle dose of koumine (15 and 3 mg/kg); 9 days after intervention
Experimental: as §1, §4, §5

in vivo = conditions: mouse, sc
[5] = test system: type II collagen-induced arthritis rat; assay: Type II collagen-induced arthritis rat: paw swelling degree and arthritis index; type: in vivo, Wistar rat; conditions: koumine 0.6, 3, 15 mg/kg intragastric; Day 5, Day 10 of intervention; dose dependent
Experimental: as §1, §4, §5

adjuvant arthritis mice [6] = assay: Adjuvant arthritis mice: joint pathology damage (HE staining); type: in vivo, Kunming mice; conditions: koumine 0.8, 4, 20 mg/kg intragastric; Day 19; dose dependent
Experimental: as §3

[7] = test system: type II collagen-induced arthritis rat; assay: Type II collagen-induced arthritis rat: mechanical hyperalgesia (Von-frey mechanical pain threshold); type: in vivo, Wistar rat; conditions: koumine 0.6, 3, 15 mg/kg intragastric; dose-effect relationship
Experimental: as §1
as §2, with “time.” for “time. In false modeling group, the emulsion was replaced with solvent glacial acetic acid solution.”
1 hour after intragastric administration, the thermal withdrawal latency of each group was determined by the photo-thermal dolorimeter; the mechanical pain threshold of rats of each group was determined by Von-frey electromechanical pain threshold detector, thus the condition of thermal hyperalgesia and mechanical hyperalgesia of rats of each group was observed.

## C=CC12CN(C)C3CC14C(=Nc1ccccc14)C1CC2C3CO1 (stereo not shown) [Koumine]
[1]
  Scores of pathologic change degree of ankle joints, HE staining (FIGS. 9 and 10): significantly decrease the scores of pathologic change degree of ankle joints
Adjuvant arthritis mice [2]; koumine 0.8, 4, 20 mg/kg intragastric once daily, Day 4-18 after inflammation
  Effect on body weight of adjuvant arthritis mice (FIG. 1): dose dependent antagonistic effect on body weight reducing
Adjuvant arthritis mice [2]; koumine treatment group 0.8, 4, 20 mg/kg intragastric, negative control decreased obviously
  Food intake and activity after inflammation: no obvious change was observed
[3]
  Effect on serum type II collagen antibody level (FIG. 5): significantly antagonistic effect on type II collagen antibody level increase
[4]
  Joint pathological change, X-ray images (FIG. 8): relieve the bone destruction of ankle joint
In vivo
  LD50: 99 mg/kg
[5]
  Effect on arthritis index (FIG. 7): reduces arthritis index
  Effect on paw swelling, paw volume (FIG. 6): relieves the paw swelling
Adjuvant arthritis mice [6]
  Effect on joint pathology damage, HE staining (FIG. 3): can improve the inflammatory cell infiltration, synovial hyperplasia, bone destruction
[7]
  Effect on mechanical pain threshold (summary of Table 4): improve mechanical pain threshold
